Holding throughout (assay): Kinase selectivity, P33-radiolabeled assay
Assay type in all cases: biochemical

One assay addresses T1, MUSK (Homo sapiens, UniProt O15146).
T1 construct: purchased Reaction Biology Corp
T1 sequence (O15146 24-869): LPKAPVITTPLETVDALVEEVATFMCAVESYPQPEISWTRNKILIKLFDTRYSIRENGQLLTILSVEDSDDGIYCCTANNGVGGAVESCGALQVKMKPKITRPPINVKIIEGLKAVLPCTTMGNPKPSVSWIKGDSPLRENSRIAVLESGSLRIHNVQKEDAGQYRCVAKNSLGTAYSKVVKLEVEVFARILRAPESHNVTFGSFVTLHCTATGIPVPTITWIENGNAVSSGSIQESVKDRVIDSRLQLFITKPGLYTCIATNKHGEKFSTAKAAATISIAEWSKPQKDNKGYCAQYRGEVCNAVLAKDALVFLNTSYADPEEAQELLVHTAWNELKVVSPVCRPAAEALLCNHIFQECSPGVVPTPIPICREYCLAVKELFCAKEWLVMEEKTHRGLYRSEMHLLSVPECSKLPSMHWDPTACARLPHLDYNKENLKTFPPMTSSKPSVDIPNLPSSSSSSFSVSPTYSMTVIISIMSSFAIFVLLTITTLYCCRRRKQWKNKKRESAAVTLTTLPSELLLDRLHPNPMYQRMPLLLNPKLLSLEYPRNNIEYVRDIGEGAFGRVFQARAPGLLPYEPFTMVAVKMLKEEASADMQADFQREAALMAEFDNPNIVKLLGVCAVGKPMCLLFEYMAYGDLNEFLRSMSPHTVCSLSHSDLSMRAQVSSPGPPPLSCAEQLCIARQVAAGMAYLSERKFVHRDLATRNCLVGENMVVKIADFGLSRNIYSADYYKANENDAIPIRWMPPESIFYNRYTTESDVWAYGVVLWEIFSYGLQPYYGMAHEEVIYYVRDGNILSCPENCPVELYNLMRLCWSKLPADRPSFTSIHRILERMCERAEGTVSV
To be noted: 10 μM ATP. The method in brief: (§1)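 Duplicate single-concentration testing used 10 μM compound. The ATP concentration was also 10 μM.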

In the next assay the target is T2, EPHB4 (Homo sapiens, UniProt P54760).
T2 construct: purchased Reaction Biology Corp
T2 sequence (P54760 16-987): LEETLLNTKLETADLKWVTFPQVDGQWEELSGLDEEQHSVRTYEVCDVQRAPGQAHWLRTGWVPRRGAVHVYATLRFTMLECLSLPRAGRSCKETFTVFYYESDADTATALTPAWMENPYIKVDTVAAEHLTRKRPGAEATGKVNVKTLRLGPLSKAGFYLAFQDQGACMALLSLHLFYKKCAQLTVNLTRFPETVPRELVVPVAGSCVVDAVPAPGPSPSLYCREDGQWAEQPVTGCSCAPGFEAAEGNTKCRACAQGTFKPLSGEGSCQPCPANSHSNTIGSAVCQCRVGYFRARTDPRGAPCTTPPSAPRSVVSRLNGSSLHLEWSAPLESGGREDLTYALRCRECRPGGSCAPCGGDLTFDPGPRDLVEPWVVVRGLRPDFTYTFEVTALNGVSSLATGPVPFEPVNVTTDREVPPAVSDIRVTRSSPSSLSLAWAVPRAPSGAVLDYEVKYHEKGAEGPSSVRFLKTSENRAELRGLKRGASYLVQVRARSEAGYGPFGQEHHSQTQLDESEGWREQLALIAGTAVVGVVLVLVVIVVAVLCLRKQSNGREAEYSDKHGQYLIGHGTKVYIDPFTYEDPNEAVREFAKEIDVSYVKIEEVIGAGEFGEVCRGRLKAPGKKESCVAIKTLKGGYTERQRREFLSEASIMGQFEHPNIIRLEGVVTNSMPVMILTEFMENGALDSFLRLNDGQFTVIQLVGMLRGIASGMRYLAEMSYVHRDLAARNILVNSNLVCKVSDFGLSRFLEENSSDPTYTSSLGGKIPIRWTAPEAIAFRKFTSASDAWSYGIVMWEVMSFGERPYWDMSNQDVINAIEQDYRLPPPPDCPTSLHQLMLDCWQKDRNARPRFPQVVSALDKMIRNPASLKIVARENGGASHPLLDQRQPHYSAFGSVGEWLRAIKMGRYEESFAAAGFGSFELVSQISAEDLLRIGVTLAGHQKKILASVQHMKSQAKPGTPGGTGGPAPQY
To be noted: 10 μM ATP. Put shortly:
as §1

For another assay, the target named is T3, Aurora B (Homo sapiens, UniProt Q96GD4).
T3 construct: purchased Reaction Biology Corp
T3 sequence (Q96GD4 whole entry): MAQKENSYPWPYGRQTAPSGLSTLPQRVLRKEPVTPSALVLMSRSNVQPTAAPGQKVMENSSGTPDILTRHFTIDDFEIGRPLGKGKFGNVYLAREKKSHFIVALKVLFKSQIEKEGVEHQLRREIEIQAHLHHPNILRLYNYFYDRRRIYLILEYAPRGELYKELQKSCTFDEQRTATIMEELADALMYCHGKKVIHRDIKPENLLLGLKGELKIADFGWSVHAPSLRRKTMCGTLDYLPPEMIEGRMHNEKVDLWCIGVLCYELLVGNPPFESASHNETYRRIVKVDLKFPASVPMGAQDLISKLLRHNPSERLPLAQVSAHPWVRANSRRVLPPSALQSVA
Put shortly: as §1

The target in another assay is T4, EPHA2 (Homo sapiens, UniProt P29317).
T4 construct: purchased Reaction Biology Corp
T4 sequence (P29317 24-976): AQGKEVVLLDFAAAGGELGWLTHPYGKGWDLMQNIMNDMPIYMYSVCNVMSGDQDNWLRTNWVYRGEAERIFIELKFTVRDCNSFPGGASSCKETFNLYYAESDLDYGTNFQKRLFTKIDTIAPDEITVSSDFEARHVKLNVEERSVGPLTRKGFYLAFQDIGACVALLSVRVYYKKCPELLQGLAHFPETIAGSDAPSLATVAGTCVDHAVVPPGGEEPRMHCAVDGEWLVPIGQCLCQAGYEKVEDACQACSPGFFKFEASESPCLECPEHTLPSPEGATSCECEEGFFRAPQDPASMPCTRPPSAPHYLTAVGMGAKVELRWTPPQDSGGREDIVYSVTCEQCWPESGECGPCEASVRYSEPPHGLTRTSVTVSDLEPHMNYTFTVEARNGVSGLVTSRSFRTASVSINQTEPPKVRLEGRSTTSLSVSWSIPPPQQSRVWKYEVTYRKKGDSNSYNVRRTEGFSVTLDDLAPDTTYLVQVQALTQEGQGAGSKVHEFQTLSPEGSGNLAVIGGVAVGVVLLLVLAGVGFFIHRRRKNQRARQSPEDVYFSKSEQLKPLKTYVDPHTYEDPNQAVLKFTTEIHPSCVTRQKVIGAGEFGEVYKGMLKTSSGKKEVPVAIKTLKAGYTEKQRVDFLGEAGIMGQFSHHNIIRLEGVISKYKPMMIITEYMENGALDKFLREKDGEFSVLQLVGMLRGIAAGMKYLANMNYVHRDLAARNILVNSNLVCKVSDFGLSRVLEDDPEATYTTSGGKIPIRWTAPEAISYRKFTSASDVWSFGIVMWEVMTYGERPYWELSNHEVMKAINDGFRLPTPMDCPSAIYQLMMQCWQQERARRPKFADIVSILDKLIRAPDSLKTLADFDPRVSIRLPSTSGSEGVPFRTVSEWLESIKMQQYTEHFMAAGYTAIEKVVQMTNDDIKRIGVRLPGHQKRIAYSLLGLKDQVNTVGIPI
To be noted: 10 μM ATP. The method in brief: as §1

The next assay concerns the target T5, CLK2 (Homo sapiens, UniProt P49760).
T5 construct: purchased Reaction Biology Corp
To be noted: 10 μM ATP. The method in brief:
as §1

Another assay concerns the target T6, RSK1 (Homo sapiens, UniProt Q15418).
T6 construct: purchased Reaction Biology Corp
To be noted: 10 μM ATP. Put shortly:
as §1

A further assay has as its target T7, Aurora A (Homo sapiens, UniProt O14965).
T7 construct: purchased Reaction Biology Corp
T7 sequence (O14965 1-403): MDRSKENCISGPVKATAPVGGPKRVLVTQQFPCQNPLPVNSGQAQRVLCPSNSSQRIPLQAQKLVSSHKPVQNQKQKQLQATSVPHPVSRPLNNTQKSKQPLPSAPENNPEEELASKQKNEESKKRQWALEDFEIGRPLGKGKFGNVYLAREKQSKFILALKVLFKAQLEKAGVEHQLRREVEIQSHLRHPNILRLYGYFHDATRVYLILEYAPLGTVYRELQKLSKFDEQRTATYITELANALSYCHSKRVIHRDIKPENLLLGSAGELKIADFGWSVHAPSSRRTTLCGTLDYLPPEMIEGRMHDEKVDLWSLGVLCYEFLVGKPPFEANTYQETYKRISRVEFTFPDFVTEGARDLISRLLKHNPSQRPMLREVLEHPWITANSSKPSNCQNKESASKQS
To be noted: 10 μM ATP. The method in brief: as §1

A further assay has as its target T8, FAK/PTK2 (Homo sapiens, UniProt Q05397).
T8 construct: purchased Reaction Biology Corp
To be noted: 10 μM ATP. Put shortly: as §1

Setting [1] is: read-out: % Enzyme Activity (relative to DMSO controls) AVG.
Setting [2] is: read-out: % Enzyme Activity (relative to DMSO controls) Data 1.
Setting [3] is: read-out: % Enzyme Activity (relative to DMSO controls) Data 2.

Where two headings read alike, the source gives them in different places.

T6 sequence (Q15418 whole entry): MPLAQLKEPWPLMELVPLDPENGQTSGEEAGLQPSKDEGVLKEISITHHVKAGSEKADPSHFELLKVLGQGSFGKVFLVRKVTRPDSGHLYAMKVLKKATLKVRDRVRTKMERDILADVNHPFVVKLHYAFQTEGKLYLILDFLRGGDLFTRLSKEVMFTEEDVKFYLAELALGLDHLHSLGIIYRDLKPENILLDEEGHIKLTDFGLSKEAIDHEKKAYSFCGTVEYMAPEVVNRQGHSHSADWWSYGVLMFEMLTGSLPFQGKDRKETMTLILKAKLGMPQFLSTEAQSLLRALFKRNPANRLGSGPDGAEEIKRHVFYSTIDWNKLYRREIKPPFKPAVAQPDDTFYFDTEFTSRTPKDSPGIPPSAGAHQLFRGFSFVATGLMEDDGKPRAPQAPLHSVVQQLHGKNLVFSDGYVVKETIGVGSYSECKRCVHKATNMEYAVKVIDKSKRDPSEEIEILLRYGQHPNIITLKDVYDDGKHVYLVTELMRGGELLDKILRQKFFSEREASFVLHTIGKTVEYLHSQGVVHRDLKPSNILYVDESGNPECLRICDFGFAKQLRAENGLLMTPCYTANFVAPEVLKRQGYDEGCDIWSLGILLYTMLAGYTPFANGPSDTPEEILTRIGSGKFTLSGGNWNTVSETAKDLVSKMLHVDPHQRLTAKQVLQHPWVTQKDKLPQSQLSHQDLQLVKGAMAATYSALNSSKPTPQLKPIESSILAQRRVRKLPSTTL
T8 sequence (Q05397 whole entry): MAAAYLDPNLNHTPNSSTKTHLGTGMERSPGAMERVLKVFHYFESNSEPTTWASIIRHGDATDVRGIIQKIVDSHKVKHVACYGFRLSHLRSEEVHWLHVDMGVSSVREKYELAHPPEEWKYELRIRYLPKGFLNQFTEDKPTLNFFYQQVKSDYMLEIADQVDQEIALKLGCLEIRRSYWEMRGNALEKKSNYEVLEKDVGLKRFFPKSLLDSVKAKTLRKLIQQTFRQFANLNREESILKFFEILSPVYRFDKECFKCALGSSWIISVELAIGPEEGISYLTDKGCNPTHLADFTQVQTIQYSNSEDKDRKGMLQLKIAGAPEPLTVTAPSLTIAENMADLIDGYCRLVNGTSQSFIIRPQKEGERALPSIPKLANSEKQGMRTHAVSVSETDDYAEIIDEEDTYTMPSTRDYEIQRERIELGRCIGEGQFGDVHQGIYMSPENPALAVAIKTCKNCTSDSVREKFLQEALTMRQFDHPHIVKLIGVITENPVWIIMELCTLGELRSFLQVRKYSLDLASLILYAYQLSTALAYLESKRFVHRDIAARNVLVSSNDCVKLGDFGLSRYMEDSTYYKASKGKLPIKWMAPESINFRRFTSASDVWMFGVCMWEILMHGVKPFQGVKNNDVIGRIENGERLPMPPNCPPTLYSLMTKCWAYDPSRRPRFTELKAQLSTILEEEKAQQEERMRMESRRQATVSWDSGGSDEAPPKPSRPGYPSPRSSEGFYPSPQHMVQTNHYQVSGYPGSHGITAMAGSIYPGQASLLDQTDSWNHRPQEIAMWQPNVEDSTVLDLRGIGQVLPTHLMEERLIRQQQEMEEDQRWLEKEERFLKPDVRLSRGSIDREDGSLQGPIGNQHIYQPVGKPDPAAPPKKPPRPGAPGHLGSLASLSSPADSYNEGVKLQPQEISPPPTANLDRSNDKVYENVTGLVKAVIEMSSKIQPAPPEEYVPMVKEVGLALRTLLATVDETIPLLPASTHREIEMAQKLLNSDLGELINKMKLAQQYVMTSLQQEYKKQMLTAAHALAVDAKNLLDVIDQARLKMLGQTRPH
T5 sequence (P49760 whole entry): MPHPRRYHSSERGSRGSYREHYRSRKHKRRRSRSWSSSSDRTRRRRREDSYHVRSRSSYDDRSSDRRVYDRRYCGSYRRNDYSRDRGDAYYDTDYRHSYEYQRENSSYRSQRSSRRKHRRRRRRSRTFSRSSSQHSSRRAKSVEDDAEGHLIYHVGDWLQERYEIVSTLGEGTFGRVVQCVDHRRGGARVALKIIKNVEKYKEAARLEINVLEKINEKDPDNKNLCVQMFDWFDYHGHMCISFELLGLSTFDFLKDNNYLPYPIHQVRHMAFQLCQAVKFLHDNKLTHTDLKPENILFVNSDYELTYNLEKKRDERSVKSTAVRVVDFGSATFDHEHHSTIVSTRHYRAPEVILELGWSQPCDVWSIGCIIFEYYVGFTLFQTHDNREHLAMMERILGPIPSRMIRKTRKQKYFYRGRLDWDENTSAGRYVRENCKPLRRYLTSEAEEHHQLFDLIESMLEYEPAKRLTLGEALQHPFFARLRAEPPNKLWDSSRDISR

For `CC(C)(C)C(=O)N1N=CC[C@H]1c1ccccc1` [GSK′963], the remaining activity at 10 µM on MUSK (setting [1]) is 99.9%; on MUSK (setting [2]), 99.2%; on MUSK (setting [3]), 100%; on EPHB4 (setting [1]), 101%; on EPHB4 (setting [2]) it was 100%; at EPHB4 (setting [3]), 101%. In addition, the remaining activity at 10 µM on Aurora B (10 uM, 10 μM ATP, read-out: % Enzyme Activity (relative to DMSO controls) Data 1) is 104%; at Aurora B (10 uM, 10 μM ATP, read-out: % Enzyme Activity (relative to DMSO controls) Data 2) it was 98.7%; at Aurora B (setting [1]), 101%; on EPHA2 (setting [1]), 96.3%; on EPHA2 (setting [2]) it was 95.6%; at EPHA2 (setting [3]), 97%. Moreover, the remaining activity at 10 µM turned out to be 101% on CLK2 (setting [1]); 102% on CLK2 (setting [2]); 99.7% at CLK2 (setting [3]); 126% on RSK1 (setting [1]); 123% at RSK1 (setting [2]); 128% at RSK1 (setting [3]). Further, the remaining activity at 10 µM on Aurora A (setting [1]) was 102%; on Aurora A (setting [2]), 101%; at Aurora A (setting [3]), 102%; at FAK/PTK2 (setting [1]), 101%; on FAK/PTK2 (setting [2]), 101%; on FAK/PTK2 (setting [3]), 101%.

The record behind these values is article PMC4979471 (Cell Death Discovery, 2015).
